ChEMBL document CHEMBL2007661, “Compounds: GSK PKIS; Assays: UNC Frye lab” (2012)
Several values for one entry are separate records, joined by “and”; a condition that tells them apart may be missing. Equal values may be shown once.

How the values were obtained:
Conditions in all cases: at 1 µM
[1] = target: T1, Inhibitor of nuclear factor kappa-B kinase subunit alpha (Homo sapiens) (UniProt O15111)
T1 sequence (whole entry): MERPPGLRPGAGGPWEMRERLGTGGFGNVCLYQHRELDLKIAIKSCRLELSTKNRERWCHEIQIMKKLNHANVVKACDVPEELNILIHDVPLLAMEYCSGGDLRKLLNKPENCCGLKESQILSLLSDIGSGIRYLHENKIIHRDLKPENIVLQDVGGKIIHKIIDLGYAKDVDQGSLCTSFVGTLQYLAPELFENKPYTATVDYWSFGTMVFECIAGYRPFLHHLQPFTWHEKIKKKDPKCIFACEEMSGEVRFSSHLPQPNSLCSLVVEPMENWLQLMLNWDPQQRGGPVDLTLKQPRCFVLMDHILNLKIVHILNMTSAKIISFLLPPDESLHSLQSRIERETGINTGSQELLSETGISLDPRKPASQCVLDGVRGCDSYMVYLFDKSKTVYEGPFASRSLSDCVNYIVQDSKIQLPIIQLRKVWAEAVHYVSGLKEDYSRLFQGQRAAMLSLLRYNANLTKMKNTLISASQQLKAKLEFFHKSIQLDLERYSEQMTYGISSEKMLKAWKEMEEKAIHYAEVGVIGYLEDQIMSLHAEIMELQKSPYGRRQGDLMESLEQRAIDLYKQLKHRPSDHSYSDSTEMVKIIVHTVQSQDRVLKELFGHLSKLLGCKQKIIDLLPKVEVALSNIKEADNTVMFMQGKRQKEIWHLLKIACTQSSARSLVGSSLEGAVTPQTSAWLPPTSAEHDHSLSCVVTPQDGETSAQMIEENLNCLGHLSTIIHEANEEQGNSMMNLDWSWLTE

[2] = target: T2, Inhibitor of nuclear factor kappa-B kinase subunit beta (Homo sapiens) (UniProt O14920)
T2 sequence (whole entry): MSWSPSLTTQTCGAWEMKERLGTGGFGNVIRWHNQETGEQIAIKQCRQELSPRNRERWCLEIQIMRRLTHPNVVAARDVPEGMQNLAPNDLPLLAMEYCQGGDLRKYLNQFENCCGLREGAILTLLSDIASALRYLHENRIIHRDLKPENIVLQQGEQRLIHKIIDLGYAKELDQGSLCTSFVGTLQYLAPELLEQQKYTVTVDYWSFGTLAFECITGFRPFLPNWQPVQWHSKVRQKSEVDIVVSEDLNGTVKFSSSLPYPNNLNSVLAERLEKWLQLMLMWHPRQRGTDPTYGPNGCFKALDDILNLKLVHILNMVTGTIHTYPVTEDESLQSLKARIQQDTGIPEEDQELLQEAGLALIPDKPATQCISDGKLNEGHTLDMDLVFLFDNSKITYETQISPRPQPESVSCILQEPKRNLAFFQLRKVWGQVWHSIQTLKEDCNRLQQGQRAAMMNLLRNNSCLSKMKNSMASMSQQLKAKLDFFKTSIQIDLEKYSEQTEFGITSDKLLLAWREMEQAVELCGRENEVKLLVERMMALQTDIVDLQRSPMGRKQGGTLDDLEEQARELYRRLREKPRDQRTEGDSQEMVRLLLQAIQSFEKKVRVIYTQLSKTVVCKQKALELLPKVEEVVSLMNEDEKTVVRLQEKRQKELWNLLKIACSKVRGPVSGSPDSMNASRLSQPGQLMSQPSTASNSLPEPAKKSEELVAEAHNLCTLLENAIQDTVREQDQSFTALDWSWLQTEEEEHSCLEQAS

[3] = target: T3, Inhibitor of nuclear factor kappa-B kinase subunit epsilon (Homo sapiens) (UniProt Q14164)
T3 sequence (whole entry): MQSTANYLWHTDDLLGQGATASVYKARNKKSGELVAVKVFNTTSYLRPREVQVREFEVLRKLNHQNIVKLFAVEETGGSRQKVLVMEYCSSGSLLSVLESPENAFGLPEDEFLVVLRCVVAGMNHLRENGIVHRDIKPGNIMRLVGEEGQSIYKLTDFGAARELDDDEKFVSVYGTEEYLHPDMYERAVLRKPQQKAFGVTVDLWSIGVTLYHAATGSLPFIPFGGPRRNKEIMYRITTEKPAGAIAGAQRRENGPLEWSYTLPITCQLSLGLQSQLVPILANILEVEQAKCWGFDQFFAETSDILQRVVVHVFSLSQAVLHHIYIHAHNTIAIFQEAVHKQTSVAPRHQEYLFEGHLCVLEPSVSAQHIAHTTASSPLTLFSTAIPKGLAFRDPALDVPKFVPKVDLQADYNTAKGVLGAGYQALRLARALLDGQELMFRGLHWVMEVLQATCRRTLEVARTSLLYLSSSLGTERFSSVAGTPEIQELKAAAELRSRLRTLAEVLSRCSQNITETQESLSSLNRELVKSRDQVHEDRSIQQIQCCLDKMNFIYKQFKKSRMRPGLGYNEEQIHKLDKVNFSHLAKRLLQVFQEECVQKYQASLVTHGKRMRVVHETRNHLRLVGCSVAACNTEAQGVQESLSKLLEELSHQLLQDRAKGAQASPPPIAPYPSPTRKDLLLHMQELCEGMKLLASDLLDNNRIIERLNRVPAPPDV

[4] = target: T4, Serine/threonine-protein kinase TBK1 (Homo sapiens) (UniProt Q9UHD2)
T4 sequence (whole entry): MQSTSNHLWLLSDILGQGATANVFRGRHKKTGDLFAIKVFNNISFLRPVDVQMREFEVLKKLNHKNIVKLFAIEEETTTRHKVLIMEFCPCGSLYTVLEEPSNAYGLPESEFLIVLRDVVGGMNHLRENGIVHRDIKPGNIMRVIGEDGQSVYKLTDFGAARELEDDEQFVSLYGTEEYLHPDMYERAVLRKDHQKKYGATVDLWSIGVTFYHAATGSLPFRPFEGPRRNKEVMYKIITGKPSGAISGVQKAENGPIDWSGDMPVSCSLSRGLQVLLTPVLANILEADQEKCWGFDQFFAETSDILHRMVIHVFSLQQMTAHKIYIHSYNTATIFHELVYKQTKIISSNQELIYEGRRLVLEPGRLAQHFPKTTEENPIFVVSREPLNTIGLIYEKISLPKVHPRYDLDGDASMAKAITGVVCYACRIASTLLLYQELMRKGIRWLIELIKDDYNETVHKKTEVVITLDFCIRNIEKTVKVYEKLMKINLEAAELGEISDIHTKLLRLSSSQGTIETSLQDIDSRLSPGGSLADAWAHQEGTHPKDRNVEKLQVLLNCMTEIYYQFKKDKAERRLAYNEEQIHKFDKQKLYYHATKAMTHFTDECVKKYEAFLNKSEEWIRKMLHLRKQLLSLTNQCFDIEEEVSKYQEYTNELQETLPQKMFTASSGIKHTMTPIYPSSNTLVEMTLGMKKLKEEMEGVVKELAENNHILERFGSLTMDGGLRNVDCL

| SMILES | inhibition [1] | inhibition [2] | inhibition [3] | inhibition [4] |
| --- | --- | --- | --- | --- |
| NS(=O)(=O)c1ccc(N/N=C2\C(=O)Nc3ccc4ncccc4c32)cc1 | 4% and -7% | -9% and -6% | 55% | 76% and 77% |
| CCn1c(-c2nonc2N)nc2c(C#CC(C)(C)O)ncc(OCC3CCNCC3)c21 | 9% and 3% | -3% | 96% | 55% and 59% |
| Fc1ccc(-c2ncn(C3CCNCC3)c2-c2ccnc(Oc3ccc(Oc4ccccc4)cc3)n2)cc1 | -5% and -4% | 0% | 1% | 3% and 2% |
| COc1ccc(-c2oc3ncnc(N)c3c2-c2ccc(NC(=O)Nc3cc(C(F)(F)F)ccc3F)cc2)cc1 | 2% and 1% | -8% and -6% | 9% and 10% | -3% and -1% |
| COc1cc(N2CCN(C(C)C)CC2)ccc1Nc1nc(Nc2ccc(F)cc2C(=O)NC[C@@H](O)CO)c2cc[nH]c2n1 | 2% and 3% | -1% and -2% | 0% and 1% | -1% and -3% |
| CCC(=O)Nc1ccc(C)c(-c2ccc(C(=O)NCC3CC3)cc2)c1 | -2% | -4% | -2% and 0% | 1% and -2% |
| Fc1ccc(-c2ncn(CCCN3CCOCC3)c2-c2ccncc2)cc1 | 0% and 1% | 0% and -5% | 0% | -1% |
| CN1CCC(C(=O)Nc2n[nH]c3nc(-c4ccc(O)cc4)c(Br)cc23)CC1 | 1% and 3% and 4% | -1% [middle of 4 runs] | 2% (2×) and 1% | 3% [middle of 4 runs] |

Next, values leading:

| inhibition [1] | inhibition [2] | inhibition [3] | inhibition [4] | SMILES |
| --- | --- | --- | --- | --- |
| 1% and 3% | -4% and -3% | 3% and 2% | 3% and 6% | NC(=O)c1sc(-n2cnc3cc(C(F)(F)F)ccc32)cc1OCc1ccccc1Br |
| 5% and 4% | -7% and -4% | -4% | -3% and -2% | COc1cc2ncn(-c3cc(OCc4ccccc4C(F)(F)F)c(C(C)=O)s3)c2cc1OC |
| 2% | 1% and 0% | -1% and -3% | -1% | Oc1cccc(-c2nc(-c3ccccc3)[nH]c2-c2ccncc2)c1 |
| 2% and 7% | -5% and 2% | -2% and -1% | -2% and -4% | FC(F)(F)CNc1nccc(-c2cnn3ncccc23)n1 |
| 0% and -2% | -4% | 23% and 21% | 29% and 33% | c1cnn2ncc(-c3ccnc(Nc4ccc5c(c4)OCCO5)n3)c2c1 |
| -2% and 1% | -1% and 0% | 33% | 46% and 45% | CC(C)=Cc1cccc2c1/C(=N/Nc1ccc(S(N)(=O)=O)cc1)C(=O)N2 |
| 1% | 0% and -4% | 0% and -1% | 0% and 3% | COc1cc(Nc2ncc(-c3ccccc3)o2)cc(OC)c1 |
| -4% and -2% | -1% and -3% | 9% and 11% | 5% and 3% | Cc1cc(-c2ccco2)cc(C)c1/C=C/c1cncc(-c2nn[nH]n2)c1 |
| 5% | -6% and -8% | 0% and 2% | 1% and -2% | Cc1ccc(O)cc1Nc1ccnc2ccc(S(C)(=O)=O)cc12 |
| 2% | 0% and -1% | -1% and 2% | 1% and 2% | Cc1c2ccc(N(C)c3ccnc(Nc4cccc(S(N)(=O)=O)c4)n3)cc2nn1C |
| -3% and -6% | 3% and 4% | 0% and -1% | 4% and 2% | CNC(=O)c1cc(-c2ccc(F)cc2)cc(-c2ccc(S(=O)(=O)N3CCCC3)cc2)c1N |
| 1% and 2% | -5% and -2% | 90% and 88% | 103% and 101% | COc1cc2ncn(-c3cc(OCc4ccccc4S(C)(=O)=O)c(C#N)s3)c2cc1OC |
